From article PMC9271792 (Frontiers in Endocrinology, 2022)
Where two headings read alike, the source gives them in different places.

Experiments:
IGF-1R [1] = conditions: cited from earlier work
IR [2] = conditions: ref [20]; cited from earlier work
IR [3] = conditions: cited from earlier work
From the text: This is similar to the poorly mitogenic S597 peptide, which also promoted slowe ...

IR [4] = conditions: compared to insulin; ref [20], [21]; cited from earlier work
mitogenic signalling = conditions: ref [20], cited from earlier work
IGF-1R [5] = target: T1, IGF-1R (Homo sapiens, UniProt P08069); test: Kinase receptor activation assay (KIRA), IGF-1R; assay type: cell-based; conditions: 10 min stimulation, P6 cells
T1 construct: expressed in transfected cells; host or cells: P6 cells (BALB/c3T3 mouse fibroblasts overexpressing human IGF-1R); Triton X-100 lysate captured on anti-IGF-1R antibody 24-31

[6] = test system: Akt / GSK-3β / S6 phosphorylation in L6 IR-A cells; test: Western blot time-course, PI3K/Akt pathway, L6 IR-A; assay type: cell-based, rat cells; human IR-A; conditions: 10 nM; for time to optimal phosphorylation of Akt (Ser473, Thr308) and GSK-3β: maximal up to t = 30 min
Experimental: (§2) R/^-IR-B (80,000 cells/well) or L6 IR-A cells (240,000 cells/well) were seeded in 6-well plates and allowed to grow to confluence (~ 48 hours). Prior to stimulation, cells were serum starved in SFM/1% BSA for 4 h. […] Lysates were scraped from the well, spun at 13,000 rpm for 3 min at 0°C to remove cell debris and stored at -80°C. Lysate protein concentrations were quantified using Bio-Rad DC™ Protein Assay and 20μg of each sample was separated in 10% glycine gels under reducing conditions. Transferred blots were blocked for 1 h at room temperature in TBST containing 3% BSA and probed with primary antibodies (Pathscan Antibody, pAkt(Thr308), pGSK(Ser9), pAS160(Thr642)) in blocking solution (TBST containing 3% BSA) overnight at 4°C. All blots were also probed with anti-β-tubulin as a loading control. Blots were washed six times for 5 min each in TBST then probed with either HRP-conjugated (dose-response) or fluorophore-conjugated (time-course) secondary antibodies for 1 hour at room temperature. The washing was then repeated.
(§3) Dose response blots were developed in ECL reagent according to manufacturer’s instruction and imaged in Fujiflim LAS-4000 Luminescent Image Analyzer. Time course blots were imaged with an Odyssey® CLx Imaging System. All blots were performed at least three times. All data were analysed with LI-COR Image Studio™ software and each band intensity was normalized to tubulin of its respective lane.

[7] = test system: ERK 1/2 / p90RSK phosphorylation in L6 IR-A cells; test: Western blot time-course, MAPK pathway, L6 IR-A; assay type: cell-based, rat cells; human IR-A; conditions: 10 nM, then reducing between t = 10 – 30 min
Experimental: as §2, §3

IR-A = IR-A receptor internalization; assay type: cell-based, human; conditions: 10 nM; for IR-A internalization (in words): 2 hours post-stimulation; for IR-A remaining on the cell surface: within 2 h, % of surface/total receptor normalised to SFM t = 0
Experimental: All data are the mean ± S.E.M. n = at least 3 independent experiments. Error bars are shown when greater than the size of the symbols.
(§1) Assays were performed in triplicate in at least three independent experiments.

IR isoform B (IR-B) = target: T2, IR isoform B (IR-B) (Homo sapiens, UniProt P06213); conditions: compared to insulin; ref [21]–[23], [32]; cited from earlier work
T2 construct: expressed in transfected cells; host or cells: R-IR-B cells (IGF-1R knockout mouse embryonic fibroblasts over-expressing human IR-B); Triton X-100 lysate captured on anti-IR antibody 83-7

[8] = test system: L6 rat skeletal myoblasts overexpressing human IR-A (L6 IR-A cells); test: DNA synthesis assay (EdU incorporation); assay type: cell-based; conditions: 18 h, equipotent within fold stated
Experimental: as §1

C57BL6 male mice = test: Insulin tolerance test; assay type: in vivo, mouse; conditions: 0.75 IU/kg ip, chow fed mice, non-fasting, 2 hours post-treatment
IR isoform A (IR-A) = target: T3, IR isoform A (IR-A) (Homo sapiens, UniProt P06213); conditions: compared to insulin; ref [21]–[23], [32]; cited from earlier work
T3 construct: expressed in transfected cells; host or cells: R-IR-A cells (IGF-1R knockout mouse embryonic fibroblasts over-expressing human IR-A); Triton X-100 lysate captured on anti-IR antibody 83-7

IGF-1R [9] = target: T1, IGF-1R; test: Competition binding assay, europium-labelled IGF-I, IGF-1R
Experimental: Results are expressed as a percentage of binding in the absence of competing ligand (%B/B0). […] All data are the mean ± S.E.M. n = at least 3 independent experiments. Error bars are shown when greater than the size of the symbols.
Human IR isoform A, isoform B and IGF-1R were solubilized from R^-IR-A, R^-IR-B and P6 cells, respectively. Briefly, cells were serum starved in serum-free medium (SFM) containing 1% (w/v) BSA for 4 h before lysis in ice-cold lysis buffer (20 mM HEPES, 150 mM NaCl, 1.5mM MgCl2, 10% (v/v) glycerol, 1% (v/v) Triton X-100, 1mM EGTA, and 1 mM phenylmethylsulfonyl fluoride, pH 7.5) for 1 h at 4°C. Lysates were centrifuged for 10 min at 2,200g, and then 100 µL of lysate was added per well to a white Greiner Lumitrac 600 96-well plate (16 h at 4°C) previously coated with anti-IR antibody 83-7 or anti-IGF-1R antibody 24-31 (250 ng/well in bicarbonate buffer, pH 9.2). […] Wells were washed with 20 mM Tris, pH 7.4, 150 mM NaCl (TBS) and 0.1% (v/v) Tween 20 (TBST). Then 100 µl/well DELFIA enhancement solution (PerkinElmer Life Sciences) was added. After 10 min, time-resolved fluorescence was measured using 340-nm excitation and 612-nm emission filters with a BMG Lab Technologies Polarstar fluorometer (Mornington, Australia). Assays were performed in triplicate in at least three independent experiments.

IR-B = test: Kinase receptor activation assay (KIRA), IR-B; assay type: cell-based, human; conditions: 10 min stimulation, Eu-PY20 detection
[10] = test system: insulin receptor isoform A (IR-A); conditions: compared to native insulin; ref [21]; cited from earlier work
IGF-1R [11] = target: T1, IGF-1R; conditions: % of native insulin; ref [21], [23]; cited from earlier work

T2 sequence (P06213 28-758 limits assumed): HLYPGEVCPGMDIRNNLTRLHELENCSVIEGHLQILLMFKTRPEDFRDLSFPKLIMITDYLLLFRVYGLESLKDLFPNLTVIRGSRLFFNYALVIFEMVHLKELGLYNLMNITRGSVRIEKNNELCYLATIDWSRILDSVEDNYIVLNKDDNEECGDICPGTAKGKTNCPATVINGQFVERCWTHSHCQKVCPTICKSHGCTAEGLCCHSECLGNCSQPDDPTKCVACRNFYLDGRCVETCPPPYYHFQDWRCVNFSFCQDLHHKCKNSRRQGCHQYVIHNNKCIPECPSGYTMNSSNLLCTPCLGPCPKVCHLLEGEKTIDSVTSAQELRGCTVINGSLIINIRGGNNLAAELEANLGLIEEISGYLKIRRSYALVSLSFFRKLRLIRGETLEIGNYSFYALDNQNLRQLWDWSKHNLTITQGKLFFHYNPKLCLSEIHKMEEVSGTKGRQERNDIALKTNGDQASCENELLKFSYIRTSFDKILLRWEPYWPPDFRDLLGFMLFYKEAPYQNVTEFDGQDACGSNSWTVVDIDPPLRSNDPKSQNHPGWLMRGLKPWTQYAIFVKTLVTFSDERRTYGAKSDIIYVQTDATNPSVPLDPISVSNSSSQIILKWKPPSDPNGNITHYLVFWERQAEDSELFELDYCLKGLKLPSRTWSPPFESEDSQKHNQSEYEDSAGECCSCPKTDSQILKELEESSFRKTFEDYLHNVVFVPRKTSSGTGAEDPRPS
T2 sequence (P06213 763-1382 partner limits assumed): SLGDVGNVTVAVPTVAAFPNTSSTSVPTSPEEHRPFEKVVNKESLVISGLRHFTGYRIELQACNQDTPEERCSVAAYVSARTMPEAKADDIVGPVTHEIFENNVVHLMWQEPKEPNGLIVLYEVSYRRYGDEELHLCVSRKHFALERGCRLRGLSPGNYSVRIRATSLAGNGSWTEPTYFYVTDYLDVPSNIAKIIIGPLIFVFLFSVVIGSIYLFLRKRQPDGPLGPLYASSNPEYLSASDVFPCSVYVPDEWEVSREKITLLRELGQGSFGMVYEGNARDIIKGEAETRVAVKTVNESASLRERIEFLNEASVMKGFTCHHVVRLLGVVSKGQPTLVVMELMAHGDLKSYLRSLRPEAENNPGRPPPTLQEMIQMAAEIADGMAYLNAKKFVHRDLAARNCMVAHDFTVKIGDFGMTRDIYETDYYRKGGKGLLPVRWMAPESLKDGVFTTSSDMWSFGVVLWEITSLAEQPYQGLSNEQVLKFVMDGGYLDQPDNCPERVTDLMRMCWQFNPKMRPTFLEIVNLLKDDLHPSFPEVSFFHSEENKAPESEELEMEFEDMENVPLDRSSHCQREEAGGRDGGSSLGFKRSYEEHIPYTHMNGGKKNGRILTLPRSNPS
T3 sequence (P06213 28-1370 isoform P06213-2 limits assumed): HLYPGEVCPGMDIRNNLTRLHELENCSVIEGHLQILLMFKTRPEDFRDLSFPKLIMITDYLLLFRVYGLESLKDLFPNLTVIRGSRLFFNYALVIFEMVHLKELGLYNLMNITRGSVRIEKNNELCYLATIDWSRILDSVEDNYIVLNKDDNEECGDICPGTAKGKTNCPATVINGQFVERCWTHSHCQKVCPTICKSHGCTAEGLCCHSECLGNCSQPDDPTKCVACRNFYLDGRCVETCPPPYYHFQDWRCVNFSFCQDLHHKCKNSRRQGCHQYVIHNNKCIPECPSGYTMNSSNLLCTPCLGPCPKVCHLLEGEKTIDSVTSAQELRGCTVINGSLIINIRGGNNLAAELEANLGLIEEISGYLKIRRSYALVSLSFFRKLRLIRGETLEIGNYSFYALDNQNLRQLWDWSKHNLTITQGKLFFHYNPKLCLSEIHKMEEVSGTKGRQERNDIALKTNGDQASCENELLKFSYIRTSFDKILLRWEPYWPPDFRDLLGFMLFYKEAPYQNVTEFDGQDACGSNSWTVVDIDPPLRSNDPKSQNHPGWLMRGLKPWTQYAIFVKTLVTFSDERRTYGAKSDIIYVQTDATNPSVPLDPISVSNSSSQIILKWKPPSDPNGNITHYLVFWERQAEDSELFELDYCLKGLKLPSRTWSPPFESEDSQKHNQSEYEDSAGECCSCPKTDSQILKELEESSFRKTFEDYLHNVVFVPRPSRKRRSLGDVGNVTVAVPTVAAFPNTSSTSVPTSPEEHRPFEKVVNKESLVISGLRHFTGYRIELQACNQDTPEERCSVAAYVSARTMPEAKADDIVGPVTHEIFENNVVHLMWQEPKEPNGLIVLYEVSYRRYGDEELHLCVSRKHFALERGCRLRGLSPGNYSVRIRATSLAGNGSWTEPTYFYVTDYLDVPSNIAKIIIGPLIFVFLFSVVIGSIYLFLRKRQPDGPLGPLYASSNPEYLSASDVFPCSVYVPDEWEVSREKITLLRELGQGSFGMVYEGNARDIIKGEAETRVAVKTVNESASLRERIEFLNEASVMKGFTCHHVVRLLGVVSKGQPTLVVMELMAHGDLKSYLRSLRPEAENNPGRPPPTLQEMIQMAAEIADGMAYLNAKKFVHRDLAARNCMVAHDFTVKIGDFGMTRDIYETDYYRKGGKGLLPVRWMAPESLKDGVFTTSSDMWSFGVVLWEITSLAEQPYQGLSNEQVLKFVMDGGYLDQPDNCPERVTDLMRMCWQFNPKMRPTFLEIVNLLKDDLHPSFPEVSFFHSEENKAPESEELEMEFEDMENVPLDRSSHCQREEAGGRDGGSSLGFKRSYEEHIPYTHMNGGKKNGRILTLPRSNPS
T3 sequence (P06213 763-1382 partner limits assumed): as the sequence (P06213 763-1382 partner limits assumed) above

HisB10Asp insulin [insulin X10]
IGF-1R binding affinity (in words) (IGF-1R [1]; compared to insulin, ref [20], [21]): increased binding affinity for the growth-promoting insulin-like growth factor receptor 1 (IGF-1R)
receptor internalization (in words) (IR [2]): increased rate of receptor internalization
phosphorylation of IR-A Tyr960, Tyr1146 and Tyr1322 (in words) (IR [3]; compared to insulin, ref [32]): increased phosphorylation of IR-A Tyr960, Tyr1146 and Tyr1322 compared to insulin
phosphorylation of the IR (in words) (IR [3]; ref [20]): sustained phosphorylation of the IR
rate of dissociation from the IR (in words) (IR [4]): reduced rate of dissociation from the IR compared to insulin
mitogenic signalling (in words) (mitogenic signalling): enhanced mitogenic signalling

human insulin
IGF-1R activation (in words) (IGF-1R [5]): equipotent but poorly activated the IGF-1R
kinetics of activation of the PI3K/Akt pathway (in words) ([6]; 0–30 min, p-Akt Ser473, p-Akt Thr308, p-GSK3β, p-S6): essentially the same
time to optimal phosphorylation of Akt (Ser473, Thr308) and GSK-3β [6]: ≤ 20 s
time to maximal phosphorylation of ERK1/2 and p90RSK [7]: 10 min
IR-A internalization (in words) (IR-A): rapidly induced receptor internalization post-stimulation (evident within 10 min)
IR-A remaining on the cell surface (IR-A): 60%

insulin glargine
IR-B binding, literature range (IR isoform B (IR-B)): 50-85%
DNA synthesis, potency difference from native insulin [8]: ≤ 2 fold
IGF-1R binding affinity (in words) (IGF-1R [1]; compared to native insulin, ref [22]): binds to the IGF-1R with higher affinity
blood glucose lowering (in words) (C57BL6 male mice): no statistical difference
IR-A binding, literature range (IR isoform A (IR-A)): 40-86%
IGF-1R affinity compared to native insulin (IGF-1R [9]; % of native insulin): 480%
IC50 (IGF-1R [9]; competition for europium-labelled IGF-I, solubilized receptor from P6 cells, 16 h at 4°C, mean ± S.E.M., n = 3 or more): 6.71 ± 3.9 nM
time to optimal phosphorylation of Akt (Ser473, Thr308) and GSK-3β [6]: ≤ 20 s
IR-B activation (in words) (IR-B): potency similar to native insulin
IR-A dissociation kinetics (in words) [10]: dissociation kinetics do not differ from native insulin
time to maximal phosphorylation of ERK1/2 and p90RSK [7]: 10 min
IGF-1R affinity, literature range (IGF-1R [11]): 460–650%
mitogenic cell signalling (in words) (mitogenic signalling; compared to native insulin, [23]): equipotent in promoting mitogenic cell signalling
IR-A internalization (in words) (IR-A): rapidly induced receptor internalization post-stimulation (evident within 10 min)
IR-A remaining on the cell surface (IR-A): 60%
